{
  "source": "patent US8192962B2",
  "about": "“Processes for detecting toxic substances” (Daikin Industries, Ltd., priority 2001, dated 2012)",
  "system": "Mitochondria-located protein genes",
  "assay": "DNA chip mRNA expression in yeast, mitochondria-located protein genes (Table 2)",
  "type": "cell-based, Saccharomyces cerevisiae S288C",
  "conditions": "cells incubated two hours with the chemical substance",
  "procedure,_shortened": "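Measured as treated-to-untreated fluorescence ratio on a full-genome yeast DNA chip. Cells (S288C, YPD, 25° C.) were exposed in log phase for two hours to one chemical, dosed to curb growth without killing.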",
  "data": [
    {"smiles": "S=C([S-])NCCNC(=S)[S-].[Zn+2]", "note": "[(11), zinc N,N′-ethylenebis(dithiocarbamate)]", "values": [
      {"measurement": "The level of expressed mRNA in the presence of chemical substance/The level of expressed mRNA in the absence of chemical substance", "setting": "yeast gene YJR121W", "result": 0.9},
      {"measurement": "The level of expressed mRNA in the presence of chemical substance/The level of expressed mRNA in the absence of chemical substance", "setting": "yeast gene YKL003C", "result": 1.7},
      {"measurement": "The level of expressed mRNA in the presence of chemical substance/The level of expressed mRNA in the absence of chemical substance", "setting": "yeast gene YKL016C", "result": 1.3},
      {"measurement": "The level of expressed mRNA in the presence of chemical substance/The level of expressed mRNA in the absence of chemical substance", "setting": "yeast gene YKL141W", "result": 1.2},
      {"measurement": "The level of expressed mRNA in the presence of chemical substance/The level of expressed mRNA in the absence of chemical substance", "setting": "yeast gene YKL142W", "result": 2.0},
      {"measurement": "The level of expressed mRNA in the presence of chemical substance/The level of expressed mRNA in the absence of chemical substance", "setting": "yeast gene YKL148C", "result": 1.5},
      {"measurement": "The level of expressed mRNA in the presence of chemical substance/The level of expressed mRNA in the absence of chemical substance", "setting": "yeast gene YKL170W", "result": 0.7},
      {"measurement": "The level of expressed mRNA in the presence of chemical substance/The level of expressed mRNA in the absence of chemical substance", "setting": "yeast gene YKL194C", "result": 1.6},
      {"measurement": "The level of expressed mRNA in the presence of chemical substance/The level of expressed mRNA in the absence of chemical substance", "setting": "yeast gene YKR066C", "result": 1.3},
      {"measurement": "The level of expressed mRNA in the presence of chemical substance/The level of expressed mRNA in the absence of chemical substance", "setting": "yeast gene YLL041C", "result": 1.3},
      {"measurement": "The level of expressed mRNA in the presence of chemical substance/The level of expressed mRNA in the absence of chemical substance", "setting": "yeast gene YLR038C", "result": 1.4},
      {"measurement": "The level of expressed mRNA in the presence of chemical substance/The level of expressed mRNA in the absence of chemical substance", "setting": "yeast gene YLR259C", "result": 3.0},
      {"measurement": "The level of expressed mRNA in the presence of chemical substance/The level of expressed mRNA in the absence of chemical substance", "setting": "yeast gene YLR295C", "result": 1.3},
      {"measurement": "The level of expressed mRNA in the presence of chemical substance/The level of expressed mRNA in the absence of chemical substance", "setting": "yeast gene YLR304C", "result": 1.6},
      {"measurement": "The level of expressed mRNA in the presence of chemical substance/The level of expressed mRNA in the absence of chemical substance", "setting": "yeast gene YLR348C", "result": 1.3},
      {"measurement": "The level of expressed mRNA in the presence of chemical substance/The level of expressed mRNA in the absence of chemical substance", "setting": "yeast gene YLR395C", "result": 1.5},
      {"measurement": "The level of expressed mRNA in the presence of chemical substance/The level of expressed mRNA in the absence of chemical substance", "setting": "yeast gene YML054C", "result": 1.4},
      {"measurement": "The level of expressed mRNA in the presence of chemical substance/The level of expressed mRNA in the absence of chemical substance", "setting": "yeast gene YML120C", "result": 1.3},
      {"measurement": "The level of expressed mRNA in the presence of chemical substance/The level of expressed mRNA in the absence of chemical substance", "setting": "yeast gene YML129C", "result": 1.2},
      {"measurement": "The level of expressed mRNA in the presence of chemical substance/The level of expressed mRNA in the absence of chemical substance", "setting": "yeast gene YMR023C", "result": 0.8},
      {"measurement": "The level of expressed mRNA in the presence of chemical substance/The level of expressed mRNA in the absence of chemical substance", "setting": "yeast gene YMR035W", "result": 1.5},
      {"measurement": "The level of expressed mRNA in the presence of chemical substance/The level of expressed mRNA in the absence of chemical substance", "setting": "yeast gene YMR083W", "result": 1.6},
      {"measurement": "The level of expressed mRNA in the presence of chemical substance/The level of expressed mRNA in the absence of chemical substance", "setting": "yeast gene YMR089C", "result": 1.3},
      {"measurement": "The level of expressed mRNA in the presence of chemical substance/The level of expressed mRNA in the absence of chemical substance", "setting": "yeast gene YMR152W", "result": 1.2},
      {"measurement": "The level of expressed mRNA in the presence of chemical substance/The level of expressed mRNA in the absence of chemical substance", "setting": "yeast gene YMR203W", "result": 2.3},
      {"measurement": "The level of expressed mRNA in the presence of chemical substance/The level of expressed mRNA in the absence of chemical substance", "setting": "yeast gene YMR267W", "result": 1.0},
      {"measurement": "The level of expressed mRNA in the presence of chemical substance/The level of expressed mRNA in the absence of chemical substance", "setting": "yeast gene YNL055C", "result": 1.9},
      {"measurement": "The level of expressed mRNA in the presence of chemical substance/The level of expressed mRNA in the absence of chemical substance", "setting": "yeast gene YNL071W", "result": 1.6},
      {"measurement": "The level of expressed mRNA in the presence of chemical substance/The level of expressed mRNA in the absence of chemical substance", "setting": "yeast gene YNL073W", "result": 1.1},
      {"measurement": "The level of expressed mRNA in the presence of chemical substance/The level of expressed mRNA in the absence of chemical substance", "setting": "yeast gene YNL104C", "result": 2.1},
      {"measurement": "The level of expressed mRNA in the presence of chemical substance/The level of expressed mRNA in the absence of chemical substance", "setting": "yeast gene YNL256W", "result": 0.6},
      {"measurement": "The level of expressed mRNA in the presence of chemical substance/The level of expressed mRNA in the absence of chemical substance", "setting": "yeast gene YOL096C", "result": 1.2},
      {"measurement": "The level of expressed mRNA in the presence of chemical substance/The level of expressed mRNA in the absence of chemical substance", "setting": "yeast gene YOR020C", "result": 2.5},
      {"measurement": "The level of expressed mRNA in the presence of chemical substance/The level of expressed mRNA in the absence of chemical substance", "setting": "yeast gene YOR037W", "result": 1.2},
      {"measurement": "The level of expressed mRNA in the presence of chemical substance/The level of expressed mRNA in the absence of chemical substance", "setting": "yeast gene YOR100C", "result": 1.4},
      {"measurement": "The level of expressed mRNA in the presence of chemical substance/The level of expressed mRNA in the absence of chemical substance", "setting": "yeast gene YOR130C", "result": 0.6},
      {"measurement": "The level of expressed mRNA in the presence of chemical substance/The level of expressed mRNA in the absence of chemical substance", "setting": "yeast gene YOR142W", "result": 1.5},
      {"measurement": "The level of expressed mRNA in the presence of chemical substance/The level of expressed mRNA in the absence of chemical substance", "setting": "yeast gene YOR150W", "result": 1.0},
      {"measurement": "The level of expressed mRNA in the presence of chemical substance/The level of expressed mRNA in the absence of chemical substance", "setting": "yeast gene YOR176W", "result": 1.4},
      {"measurement": "The level of expressed mRNA in the presence of chemical substance/The level of expressed mRNA in the absence of chemical substance", "setting": "yeast gene YOR187W", "result": 1.4},
      {"measurement": "The level of expressed mRNA in the presence of chemical substance/The level of expressed mRNA in the absence of chemical substance", "setting": "yeast gene YOR316C", "result": 2.4},
      {"measurement": "The level of expressed mRNA in the presence of chemical substance/The level of expressed mRNA in the absence of chemical substance", "setting": "yeast gene YPL040C", "result": 0.9},
      {"measurement": "The level of expressed mRNA in the presence of chemical substance/The level of expressed mRNA in the absence of chemical substance", "setting": "yeast gene YPL134C", "result": 1.7},
      {"measurement": "The level of expressed mRNA in the presence of chemical substance/The level of expressed mRNA in the absence of chemical substance", "setting": "yeast gene YPL135W", "result": 1.3},
      {"measurement": "The level of expressed mRNA in the presence of chemical substance/The level of expressed mRNA in the absence of chemical substance", "setting": "yeast gene YPL215W", "result": 1.1},
      {"measurement": "The level of expressed mRNA in the presence of chemical substance/The level of expressed mRNA in the absence of chemical substance", "setting": "yeast gene YPL262W", "result": 1.4},
      {"measurement": "The level of expressed mRNA in the presence of chemical substance/The level of expressed mRNA in the absence of chemical substance", "setting": "yeast gene YPR024W", "result": 0.9},
      {"measurement": "The level of expressed mRNA in the presence of chemical substance/The level of expressed mRNA in the absence of chemical substance", "setting": "yeast gene YPR037C", "result": 0.9},
      {"measurement": "The level of expressed mRNA in the presence of chemical substance/The level of expressed mRNA in the absence of chemical substance", "setting": "yeast gene YPR047W", "result": 1.1},
      {"measurement": "The level of expressed mRNA in the presence of chemical substance/The level of expressed mRNA in the absence of chemical substance", "setting": "yeast gene YPR134W", "result": 1.3}
    ]}
  ]
}
